Assay results reported in publication PMC12396409, “Screening and hit evaluation of a microbial metabolite library against the pathogenic Plasmodium falciparum and Toxoplasma gondii parasites” (International Journal for Parasitology: Drugs and Drug …, 2025).
Read-outs that look alike come from different tables or passages of the source.

Assays:
[1] = system: P. falciparum 3D7 parasites; assay: P. falciparum growth inhibition assay, 2-cycle (120 h treatment), delayed-death screen and dose-response; type: cell-based, Plasmodium falciparum; settings: for activity at 2 µg/mL: Plasmodium falciparum, 3D7
[2] = system: P. falciparum 3D7 parasites; assay: P. falciparum growth inhibition assay, 1-cycle (72 h treatment), SYBR DNA staining (library screen at 2 μg/mL and dose-response); type: cell-based, Plasmodium falciparum; settings: for IC50: 3D7, 72 h treatment, mean ± S.D., n ≥ 3, read-out: IC50 (μM), P. falciparum; for activity at 2 µg/mL: Plasmodium falciparum, 3D7
[3] = system: T. gondii RH strain (RH-Tub-eYFP) tachyzoites; assay: microbe, parasite or virus in culture; type: cell-based, Toxoplasma gondii; settings: 72 h; for percent parasite growth at 2 µg/mL: Toxoplasma gondii
[4] = library screen at 2 μg/mL, 120 h, % growth, replicate 1
[5] = library screen at 2 μg/mL, 120 h, % growth, replicate 2
[6] = library screen at 2 μg/mL, 72 h, % growth, replicate 1
[7] = library screen at 2 μg/mL, 72 h, % growth, replicate 2
[8] = library screen at 2 μg/mL, % growth, replicate 1
[9] = library screen at 2 μg/mL, % growth, replicate 2
[10] = P. falciparum, 120 h, screen at 2 μg/mL, replicate 1
[11] = P. falciparum, 120 h, screen at 2 μg/mL, replicate 2
[12] = P. falciparum, 72 h, screen at 2 μg/mL, replicate 1
[13] = P. falciparum, 72 h, screen at 2 μg/mL, replicate 2
[14] = T. gondii, screen at 2 μg/mL, replicate 1
[15] = T. gondii, screen at 2 μg/mL, replicate 2

CC[C@H]1CCC[C@H](O)[C@@H](C)C(=O)C2=C[C@H]3[C@@H]4C[C@H](O)C[C@H]4CC[C@H]3[C@@H]2CC(=O)O1 [Dihydrospinosyn A aglycone]
Pf_120h_%Growth_Rep1 [1, 4]: 88.50%
Pf_120h_%Growth_Rep2 [1, 5]: 102.89%
IC50 [2]: > 1 µM
Screen (P. falciparum) ([2]; library screen at 2 μg/mL, 3D7, 72 h, DD from the 120 h timepoint): I
Pf_72h_%Growth_Rep1 [2, 6]: 96.92%
Pf_72h_%Growth_Rep2 [2, 7]: 105.46%
Tg_72h_%Growth_Rep1 [3, 8]: 141.87%
Tg_72h_%Growth_Rep2 [3, 9]: 82.63%

CCCCCCCCCCCCCCCC(=O)OC[C@@H](NC(=O)C(Cl)Cl)[C@H](O)c1ccc([N+](=O)[O-])cc1 [Chloramphenicol palmitate]
activity at 2 µg/mL ([1]; P. falciparum, 120 h, screen at 2 μg/mL, replicate 1, read-out: Pf_120h_%Growth_Rep1): 101%
activity at 2 µg/mL ([1]; P. falciparum, 120 h, screen at 2 μg/mL, replicate 2, read-out: Pf_120h_%Growth_Rep2): 90.8%
activity at 2 µg/mL ([2]; P. falciparum, 72 h, screen at 2 μg/mL, replicate 1, read-out: Pf_72h_%Growth_Rep1): 83.7%
activity at 2 µg/mL ([2]; P. falciparum, 72 h, screen at 2 μg/mL, replicate 2, read-out: Pf_72h_%Growth_Rep2): 81.8%
percent parasite growth at 2 µg/mL ([3]; T. gondii, screen at 2 μg/mL, replicate 1, read-out: Tg_72h_%Growth_Rep1): 153%
percent parasite growth at 2 µg/mL ([3]; T. gondii, screen at 2 μg/mL, replicate 2, read-out: Tg_72h_%Growth_Rep2): 98.2%

C[C@@H]1CCC[C@H](O)CCC/C=C/c2cc(O)cc(O)c2C(=O)O1 [Zearalenol, beta-]
Pf_120h_%Growth_Rep1 [1, 10]: 110.27%
Pf_120h_%Growth_Rep2 [1, 11]: 105.90%
Pf_72h_%Growth_Rep1 [2, 12]: 92.46%
Pf_72h_%Growth_Rep2 [2, 13]: 126.46%
Tg_72h_%Growth_Rep1 [3, 14]: 134.26%
Tg_72h_%Growth_Rep2 [3, 15]: 80.69%

Cc1cc(O)c(C)c(O)c1C(=O)Oc1c(C)c(C)c(C(=O)Oc2c(C)c(C)c(C(=O)O)c(O)c2C)c(O)c1C [Thielavin A]
Pf_120h_%Growth_Rep1 [1, 10]: 119.92%
Pf_120h_%Growth_Rep2 [1, 11]: 51.57%
IC50 [2]: > 1 µM
Pf_72h_%Growth_Rep1 [2, 12]: 46.40%
Pf_72h_%Growth_Rep2 [2, 13]: 70.42%
Tg_72h_%Growth_Rep1 [3, 14]: 89.38%
Tg_72h_%Growth_Rep2 [3, 15]: 91.04%

C[C@@H]1CC[C@H]2C(C)(C)[C@H](O)CC[C@]2(C)[C@@]12Cc1c(O)cc3c(c1O2)CNC3=O [Stachybotrylactam]
Pf_120h_%Growth_Rep1 ([1]; P. falciparum, 120 h, parasite screen 2 μg/mL, % growth, replicate 1): 94.74%
Pf_120h_%Growth_Rep2 ([1]; P. falciparum, 120 h, parasite screen 2 μg/mL, % growth, replicate 2): 25.01%
Pf_72h_%Growth_Rep1 ([2]; P. falciparum, 72 h, parasite screen 2 μg/mL, % growth, replicate 1): 26.98%
Pf_72h_%Growth_Rep2 ([2]; P. falciparum, 72 h, parasite screen 2 μg/mL, % growth, replicate 2): 44.84%
Tg_72h_%Growth_Rep1 ([3]; T. gondii, parasite screen 2 μg/mL, % growth, replicate 1): 105.88%
Tg_72h_%Growth_Rep2 ([3]; T. gondii, parasite screen 2 μg/mL, % growth, replicate 2): 102.71%

COc1cc(OC)c2c(OC)c3ccoc3nc2c1OC [Trimethoxydictamnine, 5,7,8-]
Pf_120h_%Growth_Rep1 [1, 10]: 91.88%
Pf_120h_%Growth_Rep2 [1, 11]: 81.51%
Pf_72h_%Growth_Rep1 [2, 12]: 85.08%
Pf_72h_%Growth_Rep2 [2, 13]: 101.79%
Tg_72h_%Growth_Rep1 [3, 14]: 134.56%
Tg_72h_%Growth_Rep2 [3, 15]: 84.32%

C=CC(C)(C)[C@]12C[C@@H]3C(=O)Nc4ccccc4C(=O)N3[C@H]1N(C(C)=O)c1ccccc12 [Acetylaszonalenin]
Pf_120h_%Growth_Rep1 [1, 4]: 140.03%
Pf_120h_%Growth_Rep2 [1, 5]: 96.89%
Pf_72h_%Growth_Rep1 [2, 6]: 98.36%
Pf_72h_%Growth_Rep2 [2, 7]: 85.99%
Tg_72h_%Growth_Rep1 [3, 8]: 84.46%
Tg_72h_%Growth_Rep2 [3, 9]: 90.00%

CCCCCCCCCCCCCCCC(=O)NC1CCOC1=O (stereo not drawn) [BIA-H1500]
Pf_120h_%Growth_Rep1 ([1]; P. falciparum 3D7, 120 h, library screen at 2 μg/mL, % growth, replicate 1): 95.21%
Pf_120h_%Growth_Rep2 ([1]; P. falciparum 3D7, 120 h, library screen at 2 μg/mL, % growth, replicate 2): 120.58%
Pf_72h_%Growth_Rep1 ([2]; P. falciparum 3D7, 72 h, library screen at 2 μg/mL, % growth, replicate 1): 91.73%
Pf_72h_%Growth_Rep2 ([2]; P. falciparum 3D7, 72 h, library screen at 2 μg/mL, % growth, replicate 2): 78.97%
Tg_72h_%Growth_Rep1 ([3]; T. gondii RH, library screen at 2 μg/mL, % growth, replicate 1): 108.53%
Tg_72h_%Growth_Rep2 ([3]; T. gondii RH, library screen at 2 μg/mL, % growth, replicate 2): 91.16%

CC[C@H]1C[C@@H]2CC[C@@H](O2)[C@@H](C)C(=O)O[C@H](CC)C[C@H]2CC[C@H](O2)[C@H](C)C(=O)O[C@@H](C)C[C@@H]2CC[C@@H](O2)[C@@H](C)C(=O)O[C@H](CC)C[C@H]2CC[C@H](O2)[C@H](C)C(=O)O1 [Trinactin]
Pf_120h_%Growth_Rep1 [1, 10]: 16.44%
Pf_120h_%Growth_Rep2 [1, 11]: 5.60%
Pf_72h_%Growth_Rep1 [2, 12]: 3.59%
Pf_72h_%Growth_Rep2 [2, 13]: -0.10%
Tg_72h_%Growth_Rep1 [3, 14]: 2.98%
Tg_72h_%Growth_Rep2 [3, 15]: 5.01%
